Data: patent US11466044B2 (WAYNE STATE UNIVERSITY, priority 2017, dated 2022)
≈ marks a conversion by molar mass, not a printed value. Entries after “also recorded” stand apart in the source; their conditions may differ. Where a name gives a salt, the structure may show the parent alone. Read-outs that look alike come from different tables or passages of the source.

What was measured:
MRSA = assay: MIC by broth microdilution, MRSA isolates; format: cell-based; settings: Table 1 (Example 3); for MIC: Staphylococcus aureus, MRSA
E coli wild type = assay: MIC by broth microdilution, wild type E coli; format: cell-based; settings: for MIC: Escherichia coli; for antibacterial activity, in words: MRSA and E coli, compared with the parent compound
P aeruginosa = assay: MIC by broth microdilution, P aeruginosa isolates; format: cell-based, Pseudomonas aeruginosa; settings: strain AG220 Pseudomonas aeruginosa ATCC27853; for MIC: read-out: MIC AG220 P. aerugin
[1] = system: E coli carrying specific resistance determinants; assay: MIC by broth microdilution, E coli carrying specific resistance determinants; format: cell-based; settings: for MIC: Escherichia coli
M. abscessus = assay: MIC by broth microdilution, M. abscessus; format: cell-based; settings: Mycobacteroides abscessus
[2] = system: wild type bacterial ribosomes; assay: in-vitro translation assay, bacterial ribosomes; format: biochemical; settings: for IC50: bacterial ribosome, Table 4 (Example 3), read-out: IC50 Bac; for selectivity for the bacterial ribosome over mitochondrial (wild type, A1555G mutant) and cytosolic ribosomes, in words: compared with the parent compound
From the text: (§1) The antiribosomal activity of these compounds was investigated with cell-free translation assays using both wild type bacterial ribosomes and hybrid ribosomes carrying eukaryotic decoding A sites enabling the prediction of selectivity.

[3] = system: A1555G mutant mitochondrial ribosome (human chimeric); assay: in-vitro translation assay, human chimeric ribosomes, A1555G mutant mitochondrial decoding site; format: biochemical; settings: Table 3 (Example 3)
From the text: as §1

[4] = system: cytosolic ribosome (human chimeric); format: biochemical; settings: for Selectivity for Binding to the Bacterial Ribosome over the Cytosolic Ribosome: Table 3 (Example 3); for IC50: cytosolic, Table 4 (Example 3), read-out: IC50 Cyt
From the text: as §1

[5] = system: mitochondrial ribosome (human chimeric); format: biochemical; settings: for Selectivity for Binding to the Bacterial Ribosome over the Mitochondrial Ribosome: Table 3 (Example 3); for IC50: mitochondrial, Table 4 (Example 3), read-out: IC50 Mit
From the text: as §1

[6] = system: Klebsiella pneumonia AG215; assay: MIC by broth microdilution, Klebsiella pneumonia; format: cell-based; settings: strain AG215 Klebsiella pneumonia; for MIC: Klebsiella pneumoniae, read-out: MIC AG215 K. pneumon
[7] = system: Acinetobacter baumannii pittii AG225; assay: MIC by broth microdilution, Acinetobacter baumannii; format: cell-based; settings: strain AG225 Acinetobacter baumannii pittii
[8] = system: Enterobacter cloacae AG290; assay: MIC by broth microdilution, Enterobacter cloacae; format: cell-based; settings: strain AG290 Enterobacter cloacae; read-out: MIC AG290 E. cloacae
M. smegmatis SZ380 = assay: MIC by broth microdilution, M. smegmatis; settings: for MIC: Mycolicibacterium smegmatis
[9] = clinical isolate AG038, read-out: MIC MRSA AG038
[10] = clinical isolate AG039, read-out: MIC MRSA AG039
[11] = clinical isolate AG042, read-out: MIC MRSA AG042
[12] = AG104 Wild type, Table 2 (Example 3), read-out: MIC E coli AG104 Wild type
[13] = ATCC25922, strain AG212 E. coli (ATCC25922), read-out: MIC AG212 E. coli
[14] = WT, Table 4 (Example 3), read-out: MIC E. coli WT
[15] = WT, Table 5 (Example 3), read-out: MIC E. coli WT
[16] = clinical isolate AG001, Table 1 (Example 3), read-out: MIC E coli AG001
[17] = clinical isolate AG003, Table 1 (Example 3), read-out: MIC E coli AG003
[18] = clinical isolate AG055, Table 1 (Example 3), read-out: MIC E coli AG055
[19] = read-out: MIC E coli AG106 AAC(2′)
[20] = read-out: MIC E. coli AAC(2′) AG106
[21] = read-out: MIC E. coli AAC(2′) pH434
[22] = read-out: MIC E. coli AG106 AAC(2′)-Ia
[23] = read-out: MIC E. coli pGB2armA armA
[24] = read-out: MIC E. coli pH434 AAC(2′)-Ib
[25] = ATCC19977, ATCC 19977 WT, Table 5 (Example 3), read-out: MIC M. abscessus ATCC 19977 WT
[26] = read-out: MIC M. abscessus engineered Δeis2
[27] = ATCC, Table 4 (Example 3), read-out: MIC M. abscessus ATCC
[28] = Clin. Isol., Table 4 (Example 3), read-out: MIC M. abscessus Clin. Isol.
[29] = SZ380, read-out: MIC M. smegmatis SZ380 WT, SZ380 WT, Table 5 (Example 3)
[30] = SZ380, read-out: MIC SZ380 M. smegmatis, strain SZ380 Mycobacterium smegmatis

SMILES: NCC1OC(OC2C(CO)OC(OC3C(O)C(N)CC(N)C3OC3OC(CN)C(O)C(O)C3NC=O)C2O)C(N)C(O)C1O (centres unmarked) [Compound 182, 2′-N-Formamido-neomycin]
- MIC (MRSA; [9]): 2 to 4 µg/mL (≈ 3.11 to 6.22 µM)
- MIC (MRSA; [10]): > 32 µg/mL
- MIC (MRSA; [11]): > 32 µg/mL
- MIC (E coli wild type; AG006 Wild type, Table 2 (Example 3), read-out: MIC E coli AG006 Wild type): 2 µg/mL (≈ 3.11 µM)
- MIC (E coli wild type; [12]): 2 to 4 µg/mL (≈ 3.11 to 6.22 µM)
- MIC (E coli wild type; [13]): 4 µg/mL (≈ 6.22 µM)
- MIC (E coli wild type; [14]): 2 µg/mL (≈ 3.11 µM)
- MIC (E coli wild type; [15]): 2 µg/mL (≈ 3.11 µM)
- MIC (E coli wild type; [16]): 4 to 8 µg/mL (≈ 6.22 to 12.4 µM)
- MIC (E coli wild type; [17]): 4 to 8 µg/mL (≈ 6.22 to 12.4 µM)
- MIC (E coli wild type; [18]): 2 µg/mL (≈ 3.11 µM)
- antibacterial activity, in words (E coli wild type): retains most of the activity of the parent
- MIC (P aeruginosa): > 64 µg/mL
- effect of the AAC(2′) resistance determinant, in words ([1]; AAC(2′)): not susceptible to deactivation by AAC(2′)
- MIC [1, 19]: 2 µg/mL (≈ 3.11 µM)
- MIC [1, 20]: 2 µg/mL (≈ 3.11 µM)
- MIC [1, 21]: 8 to 16 µg/mL (≈ 12.4 to 24.9 µM)
- MIC [1, 22]: 2 µg/mL (≈ 3.11 µM)
- MIC [1, 23]: 8 µg/mL (≈ 12.4 µM)
- MIC [1, 24]: 8 to 16 µg/mL (≈ 12.4 to 24.9 µM)
- MIC (M. abscessus; [25]): 16 µg/mL (≈ 24.9 µM)
- MIC (M. abscessus; [26]): 0.5 µg/mL (≈ 0.778 µM)
- MIC (M. abscessus; [27]): 16 µg/mL (≈ 24.9 µM)
- MIC (M. abscessus; [28]): 32 µg/mL (≈ 49.8 µM)
- IC50 [2]: 0.12 µM
- selectivity for the bacterial ribosome over mitochondrial (wild type, A1555G mutant) and cytosolic ribosomes, in words [2]: increased selectivity for the bacterial ribosome
- Selectivity for Binding to the Bacterial Ribosome over the Mutant Mitochondrial Ribosome [3]: 108
- Selectivity for Binding to the Bacterial Ribosome over the Cytosolic Ribosome [4]: 1093
- IC50 [4]: 127 µM
- Selectivity for Binding to the Bacterial Ribosome over the Mitochondrial Ribosome [5]: 463
- IC50 [5]: 54 µM
- MIC [6]: 1 to 2 µg/mL (≈ 1.56 to 3.11 µM)
- MIC [7]: 2 µg/mL (≈ 3.11 µM)
- MIC [8]: 2 µg/mL (≈ 3.11 µM)
- MIC (M. smegmatis SZ380; [29]): 1 µg/mL (≈ 1.56 µM)
- MIC (M. smegmatis SZ380; [30]): 1 µg/mL (≈ 1.56 µM)

SMILES: CC(=O)NC1C(OC2C(N)CC(N)C(O)C2OC2OC(CO)C(OC3OC(CN)C(O)C(O)C3N)C2O)OC(CN)C(O)C1O (centres unmarked) [Compound 183]
- MIC MRSA AG038 (MRSA; clinical isolate AG038): >32 µg/mL
- MIC MRSA AG039 (MRSA; clinical isolate AG039): >32 µg/mL
- MIC MRSA AG042 (MRSA; clinical isolate AG042): >32 µg/mL
- MIC E coli AG006 Wild type (E coli wild type; AG006 Wild type, Table 2 (Example 3)): 64 µg/mL (≈ 97.5 µM)
- MIC E coli AG104 Wild type (E coli wild type; AG104 Wild type, Table 2 (Example 3)): 128 µg/mL (≈ 195 µM)
- antibacterial activity, in words (E coli wild type): very substantial loss of activity; also recorded: very significantly reduced activity
- MIC E. coli WT (E coli wild type; WT, Table 5 (Example 3)): 128 µg/mL (≈ 195 µM)
- MIC E coli AG001 (E coli wild type; clinical isolate AG001, Table 1 (Example 3)): >32 µg/mL
- MIC E coli AG003 (E coli wild type; clinical isolate AG003, Table 1 (Example 3)): >32 µg/mL
- MIC E coli AG055 (E coli wild type; clinical isolate AG055, Table 1 (Example 3)): >32 µg/mL
- MIC AG212 E. coli (E coli wild type; strain AG212 E. coli (ATCC25922)): >32 µg/mL
- MIC AG220 P. aerugin (P aeruginosa): >32 µg/mL
- MIC E. coli AG106 AAC(2′)-Ia ([1]; AG106 AAC(2′)-Ia, Table 5 (Example 3)): 128 µg/mL (≈ 195 µM)
- MIC E coli AG106 AAC(2′) ([1]; AG106 AAC(2′), Table 2 (Example 3)): 128 µg/mL (≈ 195 µM)
- MIC E. coli pGB2armA armA ([1]; pGB2armA armA, Table 5 (Example 3)): 128-256 μg/ml
- Selectivity for Binding to the Bacterial Ribosome over the Mutant Mitochondrial Ribosome [3]: 5.2
- Selectivity for Binding to the Bacterial Ribosome over the Cytosolic Ribosome [4]: 28
- Selectivity for Binding to the Bacterial Ribosome over the Mitochondrial Ribosome [5]: 18
- MIC AG215 K. pneumon [6]: >32 µg/mL
- MIC AG225 A. baumannii [7]: >32 µg/mL
- MIC M. smegmatis SZ380 WT (M. smegmatis SZ380; SZ380 WT, Table 5 (Example 3)): 8 µg/mL (≈ 12.2 µM)
- MIC SZ380 M. smegmatis (M. smegmatis SZ380; strain SZ380 Mycobacterium smegmatis): 8 µg/mL (≈ 12.2 µM)

SMILES: CNC1C(OC2C(N)CC(N)C(O)C2OC2OC(CO)C(OC3OC(CN)C(O)C(O)C3N)C2O)OC(CO)C(O)C1O (centres unmarked) [Compound 115, 2′-N-Methyl-paromomycin acetate salt]
- MIC (MRSA; [9]): 8 µg/mL
- MIC (MRSA; [10]): > 128 µg/mL
- MIC (MRSA; [11]): > 128 µg/mL
- MIC (MRSA; clinical isolate AG044, read-out: MIC MRSA AG044): 4 µg/mL
- MIC (E coli wild type; [12]): 2 to 4 µg/mL
- MIC (E coli wild type; [13]): 4 µg/mL
- MIC (E coli wild type; [14]): 2 to 4 µg/mL
- MIC (E coli wild type; [15]): 2 to 4 µg/mL
- MIC (E coli wild type; [16]): 16 µg/mL
- MIC (E coli wild type; [17]): 16 µg/mL
- MIC (E coli wild type; [18]): 16 µg/mL
- MIC (P aeruginosa): > 64 µg/mL
- MIC [1, 19]: 4 to 8 µg/mL
- MIC [1, 20]: 4 µg/mL
- MIC [1, 21]: 8 µg/mL
- MIC [1, 22]: 4 µg/mL
- MIC [1, 23]: 4 to 8 µg/mL
- MIC [1, 24]: 8 µg/mL
- MIC (M. abscessus; [25]): 16 µg/mL
- MIC (M. abscessus; [26]): 0.5 µg/mL
- MIC (M. abscessus; [27]): 16 µg/mL
- MIC (M. abscessus; [28]): 32 µg/mL
- IC50 [2]: 0.03 µM
- selectivity for the bacterial ribosome over mitochondrial (wild type, A1555G mutant) and cytosolic ribosomes, in words [2]: increased selectivity for the bacterial ribosome
- Selectivity for Binding to the Bacterial Ribosome over the Mutant Mitochondrial Ribosome [3]: 1134
- Selectivity for Binding to the Bacterial Ribosome over the Cytosolic Ribosome [4]: 1264
- IC50 [4]: 38 µM
- Selectivity for Binding to the Bacterial Ribosome over the Mitochondrial Ribosome [5]: 3151
- IC50 [5]: 95 µM
- MIC [6]: 2 µg/mL
- MIC [7]: 4 µg/mL
- MIC [8]: 2 µg/mL
- MIC (M. smegmatis SZ380; [29]): 4 to 8 µg/mL
- MIC (M. smegmatis SZ380; [30]): 4 to 8 µg/mL
